Source: patent publication US9617304B2, “Pharmaceutical composition containing an endocytic motif and protein transduction domains for preventing or treating cancer” (Korea Research Institute Of Bioscience And Biotechnology, priority 2011, dated 2017)

B1: Tac/3S: fusion protein of Tac and 3S polypeptide (protein)
chain: ELCDDDPPEIPHATFKAMAYKEGTMLNCECKRGFRRIKSGSLYMLCTGNSSHSSWDNQCQCTSSATRNTTKQVTPQPEEQKERKTTEMQSPMQPVDQASLPGHCREPPPWENEATERIYHFVVGQMVYYQCVQGYRALHRGPAESVCKMTHGKTRWTQPQLICTGEMETSQFPGEEKPQASPEGRPESETSCLVTTTDFQIQTEMAATMETSIFTTEYQKCVAPYPSLLSSEDNA

Experiments:
Tac/3S chimeric protein = test: Endocytosis of Tac/3S chimeric protein in COS-7 cells after pretreatment with inhibitors; type: cell-based; conditions: for endocytosis of Tac/3S chimeric protein: COS-7, 100 μg/ml ConA, 80 μM Dynasore, 1 μM Go6976, 1 μM K252a, 1 μM Vinblastine, 30 minutes pretreatment
Description: Each of plasmid DNAs encoding Tac chimeric proteins illustrated in FIG. 2 was expressed in COS-7 cell line to induce endocytosis. To quantify endocytosis percentage, the following method was used. First, plasmid DNA was transfected into COS-7 cell line, and next day, cells were suspended in DMED supplemented with 10% FBS, and seeded onto an 8-well slide glass (Thermo, 154534) to 50% confluency. Next day, to block endocytosis, cells were transferred at 4° C. and left for 30 minutes. Anti-Tac (BD BIOSCIENCES, 347640) antibody was diluted in DMEM supplemented with 10% FBS at a ratio of 1:10, and treated at 4° C. for 30 minutes. The cells were washed with medium three times. To induce endocytosis again, the cells were transferred at 5% CO2 and 37° C., and left for different time periods. The cells were fixed in 4% paraformaldehyde for 45 minutes at room temperature. To detect cell surface anti-Tac antibody, anti-mouse IgG-ALEXA FLUOR 488 (INVITROGEN, A-11001) was diluted with PBS containing 3% normal goat serum (Vector, S-1000) at a ratio of 1:500, and treated at room temperature for 1 hour. Then, the cells were washed with PBST for 5 minutes three times. For permeablization and blocking, the cells were treated with PBST containing 3% normal goat serum at room temperature for 1 hour. Next, to detect intracellular Tac, anti-mouse IgG-ALEXA FLUOR 568 (INVITROGEN, A11061) was diluted with PBST containing 3% normal goat serum at a ratio of 1:500, and treated at room temperature for 1 hour. The cells were washed with PBST three times, and mounted in Mounting Medium with DAPI (Vector, H-1200). Next day, the sample was examined by fluorescence microscopy (Olympus IX2-UCB). For treatment of inhibitors, 100 μg/ml ConA (SIGMA, C0412), 80 μM Dynasore (SIGMA, D7693), 1 μM Go6976 (CALBIOCHEM, 365250), 1 μM K252a (INVITROGEN, PHZ1131) and 1 μM Vinblastine (SIGMA, V1377) were pretreated at 5% CO2 and 37° C. for 30 minutes, before endocytosis assay.

COS-7 cells = test: Endocytosis of Tac chimeric proteins expressed in COS-7 cells, fluorescence microscopy; type: cell-based
Description: To quantify endocytosis percentage, the following method was used. First, plasmid DNA was transfected into COS-7 cell line, and next day, cells were suspended in DMED supplemented with 10% FBS, and seeded onto an 8-well slide glass (Thermo, 154534) to 50% confluency. Next day, to block endocytosis, cells were transferred at 4° C. and left for 30 minutes. Anti-Tac (BD BIOSCIENCES, 347640) antibody was diluted in DMEM supplemented with 10% FBS at a ratio of 1:10, and treated at 4° C. for 30 minutes. The cells were washed with medium three times. To induce endocytosis again, the cells were transferred at 5% CO2 and 37° C., and left for different time periods. The cells were fixed in 4% paraformaldehyde for 45 minutes at room temperature. […] Next day, the sample was examined by fluorescence microscopy (Olympus IX2-UCB). […] To quantify endocytosis of Tac chimeric proteins expressed in COS-7 cells over time, the following Equation was used. […] As such, green fluorescence intensity indicates the amount of cell surface Tac, and red fluorescence intensity signifies those of endocytosed Tac plus partial cell surface Tac. […] Partially detected surface Tac by anti-mouse IgG-ALEXA FLUOR 568 was measured by comparing fluorescence intensity between green and red at 0 min in which no endocytosis occurred. Red fluorescence intensity was 0.429-fold or green fluorescence intensity at 0 min, which was defined as α. […]

Row | Molecule | endocytosis of Tac/3S chimeric protein (Tac/3S chimeric protein) | transportation of Tac/3S protein to the perinuclear region (Tac/3S chimeric protein; COS-7, 1 μM Vinblastine) | subcellular localization (colocalization test) (COS-7 cells)
1 | O=C(N/N=C/c1ccc(O)c(O)c1)c1cc2ccccc2cc1O [Dynasore] | inhibited |  | 
2 | Cn1c2ccccc2c2c3c(c4c5ccccc5n(CCC#N)c4c21)CNC3=O [Go6976] | inhibited |  | 
3 | COC(=O)[C@@]1(O)C[C@H]2O[C@]1(C)n1c3ccccc3c3c4c(c5c6ccccc6n2c5c31)C(=O)NC4 [K252a] | not inhibited |  | 
4 | CC[C@]1(O)C[C@@H]2CN(CCc3c([nH]c4ccccc34)[C@@](C(=O)OC)(c3cc4c(cc3OC)N(C)[C@H]3[C@@](O)(C(=O)OC)[C@H](OC(C)=O)[C@]5(CC)C=CCN6CC[C@]43[C@@H]65)C2)C1 [Vinblastine] | not inhibited | blocked | 
5 | Concannavalin A [ConA] | inhibited |  | 
6 | B1 |  |  | partially merged with ER tracker
